Assay results published in patent US20100136118A1, “CALCIUM ABSORPTION ENHANCER” (priority 2007, published 2010).
Entries after “also recorded” stand apart in the source; their conditions may differ.

Legend:
Format in all cases: physicochemical
Conditions in all cases: organic acid calcium from egg shell mixture (A)
[1] = sustained release property in simulated intestines (column, distilled water)
Experimental: The amount of an eluted solvent (mL) and changes in the amount of calcium ions (integrated value) with elution of distilled water were measured, and the amount of an eluted solvent (mL) and changes in the amount of each organic acid (integrated value) with elution of distilled water were measured. Among the obtained results, the measurement results regarding the amount of calcium ions (integrated value) are shown in FIG. 11.
Furthermore, as a solvent, distilled water was used instead of 0.1 N aqueous HCl solution to simulate a state in which gastric acid was neutralized when a drink or a food was transported from the stomach to the duodenum. Except for this condition, the amount of solvent (mL) eluted in the simulated gastric cavity and changes in the amount of calcium ions (integrated value) with elution of the solvent were evaluated in the same manner as in Example 8.
Using distilled water as a solvent, the amount of solvent (mL) eluted in the simulated gastric cavity and changes in the amount of calcium ions (integrated value) with elution of the solvent were evaluated. […]
Using distilled water as a solvent, the amount of solvent (mL) eluted in the simulated intestine and changes in the amount of calcium ions (integrated value) with elution of the solvent were evaluated. […]

[2] = sustained release property in simulated gastric cavity (column, 0.1 N aqueous HCl solution)
Experimental: Subsequently, 0.1 N aqueous HCl solution simulating a gastric juice as a solvent was passed through this column and separated by a low-pressure chromatography system (Bio-Rad Laboratories, Inc., BioLogic LP Chromatography System) over time. The flow rate of the solvent during the separation was 1.0 mL/min. Then, the calcium ion concentration in each separated solution was measured using Calcium C-test Wako (Wako Pure Chemical Industries, Ltd., Cat. No. 272-21801). The concentration of the organic acid in each separated solution (lactic acid, acetic acid, and citric acid) was measured using F-Kit Lactic Acid, F-Kit Acetic Acid, and F-Kit Citric Acid (Roche Diagnostics K.K., Cat. Nos. 1112821, 148261, and 139076).
The amount of an eluted solvent (mL) and changes in the amount of calcium ions (integrated value) with elution of 0.1 N HCl were measured, and the amount of an eluted solvent (mL) and changes in the amount of each organic acid (integrated value) with elution of 0.1 N HCl were measured.
Using 0.1 N aqueous HCl solution as a solvent, the amount of solvent (mL) eluted in the simulated gastric cavity and changes in the amount of calcium ions (integrated value) with elution of the solvent were evaluated. […]

[3] = sustained release property in simulated gastric cavity (column, 0.05 N aqueous HCl solution, diluted gastric juice)
Experimental: The amount of an eluted solvent (mL) and changes in the amount of calcium ions (integrated value) with elution of 0.05 N HCl were measured, and the amount of an eluted solvent (mL) and changes in the amount of each organic acid (integrated value) with elution of 0.05 N HCl were measured. Among the obtained results, the measurement results regarding the amount of calcium ions (integrated value) are shown in FIG. 9.
Furthermore, as a solvent, 0.05 N aqueous HCl solution was used instead of 0.1 N aqueous HCl solution to simulate a state in which gastric juice in an organism was diluted with drinking water. Except for this condition, the amount of solvent (mL) eluted in the simulated gastric cavity and changes in the amount of calcium ions (integrated value) with elution of the solvent were evaluated in the same manner as in Example 8.
(§1) Using 0.05 N aqueous HCl solution as a solvent, the amount of solvent (mL) eluted in the simulated gastric cavity and changes in the amount of calcium ions (integrated value) with elution of the solvent were evaluated. […]
as §1

SMILES	amount of each organic acid (integrated value) vs amount of eluted solvent [1]	amount of each organic acid (integrated value) vs amount of eluted solvent [2]	amount of each organic acid (integrated value) vs amount of eluted solvent [3]
CC(O)C(=O)[O-].CC(O)C(=O)[O-].[Ca+2] (stereo not drawn) [calcium lactate]	dissolved first at the stage of the start of measurement	dissolved first at the stage of the start of measurement	dissolved first
O=C([O-])CC(O)(CC(=O)[O-])C(=O)[O-].O=C([O-])CC(O)(CC(=O)[O-])C(=O)[O-].[Ca+2].[Ca+2].[Ca+2] [calcium citrate]	gradually dissolved	started gradually after the start of elution	gradually dissolved; also recorded: dissolved in virtually the same amount
